{"source": "patent US10695287B2", "about": "“AMPK agonist topical medication for the treatment of certain specific medical conditions, methods of use thereof and wound dressing employing the same” (CERSCI THERAPEUTICS, INC., priority 2015, dated 2020)", "origin": "cited, not measured here", "system": "AMPK", "conditions": "topical administration; animal model (rodents); literature (Price et al. 2013; Tillu et al. 2012)", "data": [{"smiles": "Oc1ccc(C=Cc2cc(O)cc(O)c2)cc1", "note": "[resveratrol]", "values": [{"measurement": "mitigation of pain", "value": "has shown efficacy in mitigation of pain"}]}]}
